Legend:
Type in all cases: cell-based
[1] = test system: TGFβ; assay: TGFβ assay, Western blot analysis in Ba/F3 Bcr-Abl/T315I cells; settings: T315I cell line, 3×IC50, 72 h, FIG. 3
Experimental: TGFβ is a prime candidate for maintaining the CML stem cells in a non-cycling state. […] TGFβ plays a vital role in the preservation of the malignant progenitor population, and is partially responsible for the resistance to treatments targeting Bcr-Abl observed in a proportion of CML patients.
The Western Blot assay was carried out as in reference, Analytical Biochemistry, 1981, 112, 2, 195-203.
Western blot analysis was performed to decipher the mechanism of action of compounds of the present invention. […] The cells were incubated in a humidified incubator for 2-4 h at 37° C. […] Cells were then incubated for 72 h. Following the incubation, cells were harvested, washed with ice-cold phosphate buffered saline (PBS) and lysed with cold Cell Lytic buffer (Sigma Aldrich) supplemented with complete protease inhibitor cocktail (Roche, Germany). The protein extracts were obtained after centrifugation at 14,000 g at 4° C. (30 min). Aliquots of the resulting extracts were analyzed for their protein content using Bradford Reagent (Sigma) as per the manufacturer's instructions. In all the experiments, equivalent amounts of protein (70 μg) were loaded on 7.5%-10% Tris-glycine gels and resolved at 100 V for 2 h in a buffered solution (24.9 mM Tris base, 250 mM glycine, 0.1% SDS (sodium dodecyl sulfate)). […]

[2] = test system: CRKL protein; assay: Inhibition of phosphorylation of CRKL protein, Western blot, E255V cell line; settings: 72 h, FIG. 5, FIG. 6B
Experimental: (§1) Phospho-CRKL monitoring has been recognized as a prognostic marker in CML patients treated with first and second generation Bcr-Abl inhibitors (Haematologica, 2008, 93, 5, 765-769). The assay was carried out using Western blot analysis according to the reference, Analytical Biochemistry, 1981, 112, 2, 195-203, with certain modifications.
(§2) Western blot analysis was performed to decipher the mechanism of action of compounds of the present invention. […] The cells were incubated in a humidified incubator for 2-4 h at 37° C. Subsequently, cells were treated with respective concentrations of the compounds. Cells were then incubated for 72 h. Following the incubation, cells were harvested, washed with ice-cold phosphate buffered saline (PBS) and lysed with cold Cell Lytic buffer (Sigma Aldrich) supplemented with complete protease inhibitor cocktail (Roche, Germany). The protein extracts were obtained after centrifugation at 14,000 rpm at 4° C. (30 min). Aliquots of the resulting extracts were analyzed for their protein content using Bradford Reagent (Sigma) as per the manufacturer's instructions. Equivalent protein samples (70 μg) were loaded on 10% Tris-glycine gels and resolved at 100 V for 2 h in a buffered solution (24.9 mM Tris base, 250 mM glycine, 0.1% SDS (sodium dodecyl sulfate)). […]

[3] = test system: CRKL protein; assay: Inhibition of phosphorylation of CRKL protein, Western blot, Y253H cell line; settings: FIG. 6B
Experimental: as §1, §2

[4] = target: T1, Ba/F3 Bcr-Abl/Q252H (Homo sapiens, UniProt P00519, Q252H, cells depend on it); assay: Cell proliferation and cytotoxicity CCK-8 assay; settings: mouse, 72 h
T1 construct: fused on or other part: P11274 (Breakpoint cluster region protein)

[5] = test system: CRKL protein; assay: Inhibition of phosphorylation of CRKL protein, Western blot, M351T cell line; settings: FIG. 6B
Experimental: as §1, §2

[6] = target: T2, Ba/F3 Bcr-Abl/H396P (Homo sapiens, UniProt P00519, H396P, cells depend on it); assay: Cell proliferation and cytotoxicity CCK-8 assay; settings: mouse, 72 h
T2 construct: fused on or other part: P11274 (Breakpoint cluster region protein)

[7] = test system: T315I; assay: Flow cytometric analysis of apoptosis (PI staining)
Experimental: (§3) Effect of the Compounds of Present Invention in Bcr-Abl Mutated Imatinib Mesylate-Resistant Cell Lines on Cell Cycle and Apoptosis Using Flow Cytometry.
(§4) The assay was carried out as in reference, FEBS Letters, 2007, 581, 7, 1329-1334. […] At the end of incubation, cells were harvested by centrifugation at 1000 rpm for 10 minutes, washed with phosphate buffered saline (PBS) and gradually resuspended in 70% ice-cold ethanol (to facilitate the permeablisation of stains). Cell suspension was stored for a minimum period of 4 h before staining with propidium iodide (PI). Fixed cells were stained with PI (80 μg/mL) in presence of RNase A (50 μg/mL), and read on Becton Dickinson FACS Calibur (USA) for cell cycle analysis.

[8] = test system: Ba/F3; assay: as above
Experimental: as §3, §4

[9] = target: T3, Ba/F3 Bcr-Abl/M351T (Homo sapiens, UniProt P00519, M351T, cells depend on it); assay: Cell proliferation and cytotoxicity CCK-8 assay; settings: mouse, 72 h
T3 construct: fused on or other part: P11274 (Breakpoint cluster region protein)

[10] = target: T4, Ba/F3 Bcr-Abl/F317L (Homo sapiens, UniProt P00519, F317L, cells depend on it); assay: Cell proliferation and cytotoxicity CCK-8 assay; settings: mouse, 72 h
T4 construct: fused on or other part: P11274 (Breakpoint cluster region protein)

CCCc1noc(C=Cc2ccc(O)c(O)c2)n1 [Compound of Example 3, 4-[2-(3-Propyl-[1,2,4]oxadiazol-5-yl)-vinyl]-benzene-1,2-diol]
p-Smad2 and p-Smad3, effector target molecules of TGFβ signaling [1]: strongly downregulated
phosphorylation of CRKL protein (Tyr-207) [2]: inhibit
phospho-CRKL [3]: inhibit
GI50 [4]: 2.6 ± 0.84 µM
phospho-CRKL [5]: inhibit
GI50 [6]: 2 ± 0.98 µM
% Apoptosis by Flow Cytometry Analysis ([7]; 3X IC50, 96 h time point): 78%
% Apoptosis by Flow Cytometry Analysis ([7]; 5X IC50, 48 h time point): 97.6%
% Apoptosis by Flow Cytometry Analysis ([7]; 5X IC50, 96 h time point): 85%
% Apoptosis by Flow Cytometry Analysis ([8]; 3X IC50, 96 h time point): 95%
% Apoptosis by Flow Cytometry Analysis ([8]; 5X IC50, 48 h time point): 46%
% Apoptosis by Flow Cytometry Analysis ([8]; 5X IC50, 96 h time point): 84%
GI50 [9]: 5.7 ± 1.7 µM
GI50 [10]: 1.95 ± 0.21 µM

Oc1ccc(C=Cc2nc(Cc3ccccc3)no2)cc1O [Compound of Example 4, 4-[2-(3-Benzyl-[1,2,4]oxadiazol-5-yl)-vinyl]-benzene-1,2-diol]
p-Smad2 and p-Smad3, effector target molecules of TGFβ signaling [1]: strongly downregulated
GI50 [4]: 3.65 ± 0.65 µM
GI50 [6]: 2.6 ± 1.2 µM
% Apoptosis by Flow Cytometry Analysis ([7]; 3X IC50, 96 h time point): 80.58%
% Apoptosis by Flow Cytometry Analysis ([7]; 5X IC50, 48 h time point): 98.2%
% Apoptosis by Flow Cytometry Analysis ([7]; 5X IC50, 96 h time point): 63.9%
% Apoptosis by Flow Cytometry Analysis ([8]; 3X IC50, 96 h time point): 97%
% Apoptosis by Flow Cytometry Analysis ([8]; 5X IC50, 48 h time point): 46%
% Apoptosis by Flow Cytometry Analysis ([8]; 5X IC50, 96 h time point): 93%
GI50 [9]: 7.5 ± 0.7 µM
GI50 [10]: 2.85 ± 0.35 µM
